Test results: patent US4731109A, “Herbicidal 2-haloacetanilides” (Monsanto Company, priority 1982, dated 1988)
Where two headings read alike, the source gives them in different places.

Assays:
Format in all cases: in vivo
[1] = test system: Giant foxtail; assay: Field tests, selectivity
Text: (§1) In the discussion and tables of data below, reference is made to herbicide application rates symbolized as "GR15 " and "GR85 "; these rates are given in kilograms per hectare (kg/ha) which are convertible into pounds per acre (lbs/A) by dividing the kg/ha rate by 1.12.
A further guide to the effectiveness of a chemical as a selective herbicide is the "selectivity factor" ("SF") for a herbicide in given crops and weeds. The selectivity factor is a measure of the relative degree of crop safety and weed injury and is expressed in terms of the GR15 /GR85 ratio, i.e., the GR15 rate for the crop divided by the GR85 rate for the weed, both rates in kg/ha (lb/A). In the tables below, selectivity factors are shown in parenthesis following the GR85 rate for each weed; the symbol "NS" indicates "non-selective". Marginal or undetermined selectivity is indicated by a dash (--).
It will be understood by those skilled in the art that not all of the named weeds are selectively controlled in all of the named crops under all conditions of climate, soil, moisture and/or herbicide application modes. Selectivity data for control of the foregoing weeds in the crops soybeans, corn, cotton and peanuts from a plurality of field tests in various locations under various conditions of soil, moisture, etc., is shown collectively in Tables VIII-XI, respectively.

[2] = test system: wild proso millet; assay: Field pre-emergence selectivity test; details: 1008 h, 6 weeks, read-out: Percent Inhibition; for inhibition at 560 g/ha: 0.56 Kg/Ha; for inhibition at 1120 g/ha: 1.12 Kg/Ha; for inhibition at 2240 g/ha: 2.24 Kg/Ha; for inhibition at 4480 g/ha: 4.48 Kg/Ha
Experimental: The compound of Examples 1 and 2 was also tested in the field to determine its pre-emergence selectivity against foxtail (spp), barnyardgrass, wild proso millet, smartweed, lambsquarters and pigweed in a plurality of crops; the data (representing three replicate runs) are shown in Table VII for both surface application (S.A.) and soil incorporation (PPI, i.e., preplant incorporation) of the herbicide. The seeds were planted in a fine seedbed of silt loam of intermediate moisture. The seeds were planted at a depth of two inches (5.08 cm). First rainfall (0.2"; 0.51 cm) occurred the day following treatment, the second rain (0.25"; […]) two days after treatment; cumulative rainfall 22 days after treatment was 1.8" (4.57 cm). Observations were made 6 weeks after treatment.

[3] = test system: peanuts; assay: Field pre-emergence selectivity test; details: 1008 h, 6 weeks, read-out: Percent Inhibition; for inhibition at 560 g/ha: 0.56 Kg/Ha; for inhibition at 1120 g/ha: 1.12 Kg/Ha; for inhibition at 2240 g/ha: 2.24 Kg/Ha; for inhibition at 4480 g/ha: 4.48 Kg/Ha
Text: (§2) The seeds were planted in a fine seedbed of silt loam of intermediate moisture. The seeds were planted at a depth of two inches (5.08 cm). First rainfall (0.2"; 0.51 cm) occurred the day following treatment, the second rain (0.25"; […]) two days after treatment; cumulative rainfall 22 days after treatment was 1.8" (4.57 cm). Observations were made 6 weeks after treatment.

[4] = test system: cotton; assay: Field pre-emergence selectivity test; details: Gossypium hirsutum, 1008 h, 6 weeks, read-out: Percent Inhibition; for inhibition at 560 g/ha: 0.56 Kg/Ha; for inhibition at 1120 g/ha: 1.12 Kg/Ha; for inhibition at 2240 g/ha: 2.24 Kg/Ha; for inhibition at 4480 g/ha: 4.48 Kg/Ha
Text: as §2

[5] = test system: Sweet Corn; assay: Field pre-emergence selectivity test; details: Zea mays, 1008 h, 6 weeks, read-out: Percent Inhibition; for inhibition at 560 g/ha: 0.56 Kg/Ha; for inhibition at 1120 g/ha: 1.12 Kg/Ha; for inhibition at 2240 g/ha: 2.24 Kg/Ha; for inhibition at 4480 g/ha: 4.48 Kg/Ha
Text: as §2

[6] = test system: Lambsquarters; assay: Field pre-emergence selectivity test; details: Chenopodium album, 1008 h, 6 weeks, read-out: Percent Inhibition; for inhibition at 560 g/ha: 0.56 Kg/Ha; for inhibition at 1120 g/ha: 1.12 Kg/Ha; for inhibition at 2240 g/ha: 2.24 Kg/Ha; for inhibition at 4480 g/ha: 4.48 Kg/Ha
Text: as §2

[7] = test system: snap beans; assay: Greenhouse pre-emergence GR15/GR85 selectivity test; details: Table VI
Text: A good grade of top soil is placed in aluminum pans and compacted to a depth of three-eighths to one-half inch from the top of the pan. On the top of the soil is placed a number of seeds or vegetative propagules of various plant species. The soil required to level fill the pans after seeding or adding vegetative propagules is weighed into a pan. The soil and a known amount of the active ingredient applied in a solvent or as a wettable powder suspension are thoroughly mixed, and used to cover the prepared pans. After treatment, the pans are given an initial overhead irrigation of eater, equivalent to one-fourth inch (0.64 cm) rainfall, then watered by subirrigation as need to give adequate moisture for germination and growth. As an alternative procedure, the overhead irrigation may be omitted. Observations are made about 2-3 weeks after seeding and treatment.
as §1
A further guide to the effectiveness of a chemical as a selective herbicide is the "selectivity factor" ("SF") for a herbicide in given crops and weeds. […]

[8] = test system: soybeans; assay: as above; details: for GR15 Rate: Table XIV
How it was run: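 Active ingredient mixed into cover soil over seeded pans (pre-emergence soil incorporation), initial overhead irrigation equal to 0.64 cm rainfall, then subirrigation. Scored about 2-3 weeks after seeding; GR15 (crop) and GR85 (weed) rates in kg/ha, selectivity factor = crop GR15 / weed GR85.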

CCOCN(C(=O)CCl)c1c(C)cccc1C(F)(F)F [Example 1, N-(ethoxymethyl)-2'-trifluoromethyl-6'-methyl-2-chloroacetanilide]
GR85 ([1]; in corn, P.P.I., 6 WAT): 2.0 kg/ha
S.F. (GR15/GR85) ([1]; in corn, P.P.I., 6 WAT): 2.5
GR85 ([1]; in corn, P.P.I., 6.5 WAT): 4.5 kg/ha
S.F. (GR15/GR85) ([1]; in corn, P.P.I., 6.5 WAT): 1.5
GR85 ([1]; in corn, S.A., 6 WAT): < 1.1 kg/ha
S.F. (GR15/GR85) ([1]; in corn, S.A., 6 WAT): 4
GR85 ([1]; in corn, S.A., 6.5 WAT): 8.4 kg/ha
GR85 ([1]; in soybeans, P.P.I., 3 WAT): < 1.1 kg/ha
S.F. (GR15/GR85) ([1]; in soybeans, P.P.I., 3 WAT): > 4
GR85 ([1]; in soybeans, P.P.I., 5 WAT): < 1.1 kg/ha
S.F. (GR15/GR85) ([1]; in soybeans, P.P.I., 5 WAT): > 4
GR85 ([1]; in soybeans, S.A., 3 WAT): < 1.1 kg/ha
S.F. (GR15/GR85) ([1]; in soybeans, S.A., 3 WAT): > 4
inhibition at 560 g/ha ([2]; P.P.I.): 23%
inhibition at 1120 g/ha ([2]; P.P.I.): 58%
inhibition at 2240 g/ha ([2]; P.P.I.): 80%
inhibition at 4480 g/ha ([2]; P.P.I.): 85%
inhibition at 560 g/ha ([2]; S.A.): 63%
inhibition at 1120 g/ha ([2]; S.A.): 83%
inhibition at 2240 g/ha ([2]; S.A.): 95%
inhibition at 4480 g/ha ([2]; S.A.): 97%
inhibition at 560 g/ha ([3]; P.P.I.): 17%
inhibition at 1120 g/ha ([3]; P.P.I.): 13%
inhibition at 2240 g/ha ([3]; P.P.I.): 15%
inhibition at 4480 g/ha ([3]; P.P.I.): 28%
inhibition at 560 g/ha ([3]; S.A.): 0%
inhibition at 1120 g/ha ([3]; S.A.): 0%
inhibition at 2240 g/ha ([3]; S.A.): 8%
inhibition at 4480 g/ha ([3]; S.A.): 22%
inhibition at 560 g/ha ([4]; P.P.I.): 13%
inhibition at 1120 g/ha ([4]; P.P.I.): 32%
inhibition at 2240 g/ha ([4]; P.P.I.): 37%
inhibition at 4480 g/ha ([4]; P.P.I.): 82%
inhibition at 560 g/ha ([4]; S.A.): 0%
inhibition at 1120 g/ha ([4]; S.A.): 13%
inhibition at 2240 g/ha ([4]; S.A.): 20%
inhibition at 4480 g/ha ([4]; S.A.): 25%
inhibition at 560 g/ha ([5]; P.P.I.): 0%
inhibition at 1120 g/ha ([5]; P.P.I.): 3%
inhibition at 2240 g/ha ([5]; P.P.I.): 27%
inhibition at 4480 g/ha ([5]; P.P.I.): 40%
inhibition at 560 g/ha ([5]; S.A.): 0%
inhibition at 1120 g/ha ([5]; S.A.): 0%
inhibition at 2240 g/ha ([5]; S.A.): 7%
inhibition at 560 g/ha ([6]; S.A.): 0%
inhibition at 1120 g/ha ([6]; S.A.): 13%
inhibition at 2240 g/ha ([6]; S.A.): 40%
inhibition at 4480 g/ha ([6]; S.A.): 67%
GR15 Rate [7]: 0.90 Kg/Ha
GR15 Rate [8]: > 1.1 Kg/Ha
GR15 ([8]; soybeans/purple nutsedge): 1.1 kg/ha

CC(C)OCN(C(=O)CCl)c1ccccc1C(F)(F)F [Example 2, N--(isopropoxymethyl)-2'-trifluoromethyl-2-chloroacetanilide]
inhibition at 560 g/ha ([2]; P.P.I.): 35%
inhibition at 1120 g/ha ([2]; P.P.I.): 48%
inhibition at 2240 g/ha ([2]; P.P.I.): 68%
inhibition at 4480 g/ha ([2]; P.P.I.): 87%
inhibition at 560 g/ha ([2]; S.A.): 27%
inhibition at 1120 g/ha ([2]; S.A.): 63%
inhibition at 2240 g/ha ([2]; S.A.): 75%
inhibition at 4480 g/ha ([2]; S.A.): 93%
inhibition at 560 g/ha ([3]; P.P.I.): 0%
inhibition at 1120 g/ha ([3]; P.P.I.): 5%
inhibition at 2240 g/ha ([3]; P.P.I.): 17%
inhibition at 4480 g/ha ([3]; P.P.I.): 45%
inhibition at 560 g/ha ([3]; S.A.): 0%
inhibition at 1120 g/ha ([3]; S.A.): 0%
inhibition at 2240 g/ha ([3]; S.A.): 5%
inhibition at 4480 g/ha ([3]; S.A.): 20%
inhibition at 560 g/ha ([4]; P.P.I.): 10%
inhibition at 1120 g/ha ([4]; P.P.I.): 23%
inhibition at 2240 g/ha ([4]; P.P.I.): 30%
inhibition at 4480 g/ha ([4]; P.P.I.): 75%
inhibition at 560 g/ha ([4]; S.A.): 0%
inhibition at 1120 g/ha ([4]; S.A.): 8%
inhibition at 2240 g/ha ([4]; S.A.): 8%
inhibition at 4480 g/ha ([4]; S.A.): 43%
inhibition at 560 g/ha ([5]; P.P.I.): 0%
inhibition at 1120 g/ha ([5]; P.P.I.): 0%
inhibition at 2240 g/ha ([5]; P.P.I.): 13%
inhibition at 4480 g/ha ([5]; P.P.I.): 35%
inhibition at 560 g/ha ([5]; S.A.): 0%
inhibition at 1120 g/ha ([5]; S.A.): 0%
inhibition at 2240 g/ha ([5]; S.A.): 0%
inhibition at 4480 g/ha ([5]; S.A.): 23%
inhibition at 2240 g/ha ([6]; P.P.I.): 95%
inhibition at 4480 g/ha ([6]; P.P.I.): 100%
inhibition at 560 g/ha ([6]; S.A.): 0%
inhibition at 1120 g/ha ([6]; S.A.): 7%
inhibition at 2240 g/ha ([6]; S.A.): 20%
inhibition at 4480 g/ha ([6]; S.A.): 62%
GR15 Rate [7]: 2.2 Kg/Ha
GR15 Rate [8]: > 1.1 Kg/Ha
